The source made the active and inactive calls. The calls are words filed in the database; no cut-off is given here.

Data on 13 compounds can be found in ChEMBL document CHEMBL3120091, “Microwave-assisted synthesis and myorelaxant activity of 9-indolyl-1,8-acridinedione derivatives” (2014).

Experiment [1] has as its system Stomach. Put plainly: Myorelaxant activity in New Zealand white rabbit gastric fundus smooth muscle assessed as relaxation of noradrenaline-induced contraction at 3 x 10^-4 M relative to control. Format: functional. The conditions noted are these: Oryctolagus cuniculus.
The test system of experiment [2] is Stomach. The experiment is described as follows: Myorelaxant activity in New Zealand white rabbit gastric fundus smooth muscle assessed as relaxation of noradrenaline-induced contraction in presence of tetraethylammonium chloride. Format: functional, tissue-based. The conditions noted are these: Oryctolagus cuniculus.
For experiment [3], the system named is Stomach. Put plainly: Myorelaxant activity in New Zealand white rabbit gastric fundus smooth muscle assessed as relaxation of noradrenaline-induced contraction in presence of glibenclamide. The format is functional, tissue-based. Particulars: Oryctolagus cuniculus.
Experiment [4] concerns Stomach. The experiment is described as follows: Myorelaxant activity in New Zealand white rabbit gastric fundus smooth muscle assessed as relaxation of noradrenaline-induced contraction. Format: functional, Oryctolagus cuniculus.
In experiment [5] the test system is Stomach. The experiment is described as follows: Myorelaxant activity in New Zealand white rabbit gastric fundus smooth muscle assessed as relaxation of noradrenaline-induced contraction in presence of L-NAME. The format is functional, tissue-based. Particulars: Oryctolagus cuniculus.
Experiment [6] has as its system Stomach. Put plainly: Myorelaxant activity in New Zealand white rabbit gastric fundus smooth muscle assessed as relaxation of noradrenaline-induced contraction in presence of propranolol. The format is functional, tissue-based. Particulars: Oryctolagus cuniculus.
In experiment [7] the test system is Stomach. Put plainly: Myorelaxant activity in New Zealand white rabbit gastric fundus smooth muscle assessed as relaxation of noradrenaline-induced contraction in presence of indomethacin. Format: functional, tissue-based. The conditions noted are these: Oryctolagus cuniculus.

Broadly, the Emax is the size of the effect at its maximum, as opposed to the concentration needed. As for `Cn1c(C2C3=C(CCC(C)(C)C3=O)NC3=C2C(=O)C(C)(C)CC3)cc2ccccc21`, the Emax at 300 µM in experiment [1] came to 11.6%. For the same compound, the outcome in experiment [2] and in experiment [3] was Active. Besides, the pD2 in experiment [4] was found to be 4.6.

As for `Cn1c(C2C3=C(CCCC3=O)NC3=C2C(=O)CCC3)cc2ccccc21`, the Emax result in experiment [1] was “inactive”. The outcome in experiment [5], in experiment [6] and in experiment [7] was Active. In experiment [4] (Oryctolagus cuniculus), the pD2 result was “inactive”.

Consider `Cn1c(C2C3=C(CC(C)(C)CC3=O)NC3=C2C(=O)CC(C)(C)C3)cc2ccccc21`, for which, in experiment [1], the Emax at 300 µM worked out at 34%. The outcome in experiment [2] and in experiment [3] was Active. Also, the pD2 in experiment [4] is listed as 4.1.

`CC1(C)CCC2=C(C1=O)C(c1c[nH]c3ccc(Br)cc13)C1=C(CCC(C)(C)C1=O)N2`: the Emax at 300 µM in experiment [1] turned out to be 17.5%. Moreover, the result in experiment [2] and in experiment [3] was Active. Further, the pD2 in experiment [4] stood at 4.46.

For the compound `CC1(C)CC(=O)C2=C(C1)NC1=C(C(=O)CC(C)(C)C1)C2c1c[nH]c2ccc(Br)cc12`, the Emax at 300 µM in experiment [1] came out at 71.5%. The outcome in experiment [2] and in experiment [3] was Active. In experiment [4], the pD2 stood at 3.85.

As for `Cn1cc(C2C3=C(CCCC3=O)NC3=C2C(=O)CCC3)c2ccccc21`, in experiment [1], the Emax result was “inactive”. Besides, the result in experiment [5], in experiment [6] and in experiment [7] was Active. In addition, the pD2 entry in experiment [4] (Oryctolagus cuniculus) was “inactive”.

Regarding `CC1(C)CC(=O)C2=C(C1)NC1=C(C(=O)CC(C)(C)C1)C2c1c[nH]c2cc(Br)ccc12`, the Emax at 300 µM in experiment [1] came out at 52.7%. The result in experiment [2] and in experiment [3] was Active. For the same compound, in experiment [4], the pD2 was 4.25.

Consider `Cn1cc(C2C3=C(CCC(C)(C)C3=O)NC3=C2C(=O)C(C)(C)CC3)c2ccccc21`, for which the Emax result in experiment [1] was “inactive”. In addition, the result in experiment [5], in experiment [6] and in experiment [7] was Active. Besides, the pD2 entry in experiment [4] (Oryctolagus cuniculus) is “inactive”.

With `O=C1CCCC2=C1C(c1c[nH]c3ccc(Br)cc13)C1=C(CCCC1=O)N2`, in experiment [1], the Emax result was “inactive”. Moreover, the result in experiment [5], in experiment [6] and in experiment [7] was Active. The pD2 entry in experiment [4] (Oryctolagus cuniculus) is “inactive”.

`CC(N/C(=N\C#N)Nc1ccncc1)C(C)(C)C` (stereo not given) [PINACIDIL ANHYDROUS]: in experiment [1], the Emax at 300 µM came out at 63.8%. Further, in experiment [4], the pD2 was found to be 3.9.

In the case of `O=C1CCCC2=C1C(c1c[nH]c3cc(Br)ccc13)C1=C(CCCC1=O)N2`, the Emax entry in experiment [1] is “inactive”. In addition, the result in experiment [5], in experiment [6] and in experiment [7] was Active. In addition, in experiment [4] (Oryctolagus cuniculus), the pD2 entry was “inactive”.

Consider `Cn1cc(C2C3=C(CC(C)(C)CC3=O)NC3=C2C(=O)CC(C)(C)C3)c2ccccc21`, for which, in experiment [1], the Emax at 300 µM was determined as 28.6%. Also, the result in experiment [2] and in experiment [3] was Active. Moreover, the pD2 in experiment [4] was found to be 4.28.

In the case of `CC1(C)CCC2=C(C1=O)C(c1c[nH]c3cc(Br)ccc13)C1=C(CCC(C)(C)C1=O)N2`, in experiment [1], the Emax at 300 µM is 12%. The outcome in experiment [2] and in experiment [3] was Active. Besides, the pD2 in experiment [4] is given as 4.54.
